From ChEMBL document CHEMBL2021828, “An approach for differentiating isozymes. Construction of libraries containing short aromatic peptides as part of a method to design selective inhibitors against lipases” (Bioorg Med Chem Lett, 2012)
Calls of active or inactive are those of the source. The calls are words filed in the database; no cut-off is given here.

Experiments:
[1] = target: T1, Lipase (Thermomyces lanuginosus) (UniProt O59952); assay: Activity of Thermomyces lanuginosus lipase using p-nitrophenylbutyrate as substrate by Lineweaver-Burk plot analysis
T1 sequence (whole entry): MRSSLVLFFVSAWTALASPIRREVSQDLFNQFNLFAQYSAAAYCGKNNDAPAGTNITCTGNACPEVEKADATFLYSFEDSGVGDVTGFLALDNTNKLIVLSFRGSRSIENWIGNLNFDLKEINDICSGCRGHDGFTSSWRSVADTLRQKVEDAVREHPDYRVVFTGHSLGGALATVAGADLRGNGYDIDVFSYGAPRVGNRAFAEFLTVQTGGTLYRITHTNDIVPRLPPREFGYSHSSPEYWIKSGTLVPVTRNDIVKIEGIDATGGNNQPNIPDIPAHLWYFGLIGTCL

Chromobacterium viscosum [2] = assay: Activity of Chromobacterium viscosum lipase using p-nitrophenylbutyrate as substrate by Lineweaver-Burk plot analysis
[3] = target: T2, Pancreatic triacylglycerol lipase (Sus scrofa) (UniProt P00591); assay: Activity of porcine pancreatic lipase using p-nitrophenylbutyrate as substrate by Lineweaver-Burk plot analysis
T2 sequence (whole entry): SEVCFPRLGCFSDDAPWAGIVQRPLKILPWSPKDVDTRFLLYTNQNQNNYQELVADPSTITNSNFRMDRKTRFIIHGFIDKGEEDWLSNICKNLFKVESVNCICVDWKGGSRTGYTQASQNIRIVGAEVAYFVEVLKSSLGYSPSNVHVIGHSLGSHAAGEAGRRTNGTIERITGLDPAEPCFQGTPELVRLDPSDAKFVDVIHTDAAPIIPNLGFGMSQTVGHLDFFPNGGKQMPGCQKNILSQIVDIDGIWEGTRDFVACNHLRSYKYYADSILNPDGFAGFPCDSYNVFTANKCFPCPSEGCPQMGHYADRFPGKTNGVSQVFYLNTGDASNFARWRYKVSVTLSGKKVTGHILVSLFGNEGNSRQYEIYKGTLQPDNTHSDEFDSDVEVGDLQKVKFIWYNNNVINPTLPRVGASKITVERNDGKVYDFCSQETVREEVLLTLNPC

[4] = target: T3, Pancreatic triacylglycerol lipase (Homo sapiens) (UniProt P16233); assay: Activity of human pancreatic lipase using p-nitrophenylbutyrate as substrate by Lineweaver-Burk plot analysis
T3 sequence (whole entry): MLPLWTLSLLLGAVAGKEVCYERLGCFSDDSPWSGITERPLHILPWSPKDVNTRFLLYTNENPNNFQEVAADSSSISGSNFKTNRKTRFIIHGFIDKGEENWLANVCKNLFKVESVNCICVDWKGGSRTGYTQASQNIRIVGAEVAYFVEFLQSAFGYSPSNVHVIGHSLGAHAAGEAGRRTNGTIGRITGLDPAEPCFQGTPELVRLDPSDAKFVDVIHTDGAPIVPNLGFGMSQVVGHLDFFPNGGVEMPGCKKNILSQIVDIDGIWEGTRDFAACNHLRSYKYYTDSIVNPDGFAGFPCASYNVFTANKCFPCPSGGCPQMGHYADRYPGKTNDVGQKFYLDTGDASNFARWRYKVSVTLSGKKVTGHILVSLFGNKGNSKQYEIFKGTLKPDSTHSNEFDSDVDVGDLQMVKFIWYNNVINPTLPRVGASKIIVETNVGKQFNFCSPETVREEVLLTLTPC

[5] = Inhibition of Chromobacterium viscosum lipase using p-nitrophenylbutyrate as substrate by Dixon plot analysis
[6] = Discrimination ratio of Ki for Thermomyces lanuginosus lipase to Ki for Chromobacterium viscosum lipase
[7] = Discrimination ratio of Ki for porcine pancreatic lipase to Ki for Chromobacterium viscosum lipase
[8] = Discrimination ratio of Ki for human pancreatic lipase to Ki for Chromobacterium viscosum lipase
[9] = target: T2, Pancreatic triacylglycerol lipase (Sus scrofa); assay: (§1) Inhibition of porcine pancreatic lipase using p-nitrophenylbutyrate as substrate by Dixon plot analysis
[10] = target: T4, Pancreatic triacylglycerol lipase (Sus scrofa, UniProt P00591); assay: as §1
T4 sequence (P00591 whole entry): T2 sequence (whole entry)

[11] = target: T3, Pancreatic triacylglycerol lipase (Homo sapiens); assay: (§2) Inhibition of human pancreatic lipase using p-nitrophenylbutyrate as substrate by Dixon plot analysis
[12] = target: T5, Pancreatic triacylglycerol lipase (Homo sapiens, UniProt P16233); assay: as §2
T5 sequence (P16233 whole entry): T3 sequence (whole entry)

[13] = Solubility of the compound in buffer; type: physicochemical
Chromobacterium viscosum [14] = assay: Activity of Chromobacterium viscosum lipase using p-nitrophenylbutyrate as substrate by Lineweaver-Burk plot analysis relative to control
[15] = target: T1, Lipase (Thermomyces lanuginosus); assay: Inhibition of Thermomyces lanuginosus lipase using p-nitrophenylbutyrate as substrate by Dixon pot analysis

Activity [1] | Activity (Chromobacterium viscosum [2]) | Activity [3] | Activity [4] | Compound | further results
Active | Active | Active | Active | CCCC(=O)Oc1ccc(NC(=O)CCC(=O)N[C@@H](Cc2c[nH]c3ccccc23)C(=O)N[C@@H](Cc2ccccc2)C(N)=O)cc1 | –
– | – | – | – | CCCC(=O)Oc1ccc([N+](=O)[O-])cc1 | Km (Chromobacterium viscosum [2]): 3500 µM
Active | Active | Active | Active | CCCC(=O)Oc1ccc(NC(=O)CCC(=O)N[C@@H](Cc2c[nH]c3ccccc23)C(=O)N[C@@H](Cc2ccc(O)cc2)C(N)=O)cc1 | –
– | – | – | – | NC(=O)[C@H](Cc1ccccc1)NC(=O)[C@H](Cc1ccccc1)NC(=O)CCC(=O)Nc1ccc(O)cc1 | Ki [5]: 37 µM; Ratio Ki [6]: > 160; Ratio Ki [7]: > 160; Ratio Ki [8]: > 160
Active | Active | Active | Active | CCCC(=O)Oc1ccc(NC(=O)CCC(=O)N[C@@H](Cc2c[nH]c3ccccc23)C(=O)N[C@@H](Cc2c[nH]c3ccccc23)C(N)=O)cc1 | –
– | – | – | – | CCCCOc1ccc(NC(=O)CCC(=O)N[C@@H](Cc2ccccc2)C(=O)N[C@@H](Cc2ccc(O)cc2)C(N)=O)cc1 | inhibition [9]: inactive; Ki [10]: 160 µM; inhibition [11]: inactive; Ki [12]: 550 µM; solubility [13]: soluble
Active | Active | Active | Active | CCCC(=O)Oc1ccc(NC(=O)CCC(=O)N[C@@H](Cc2ccccc2)C(=O)N[C@@H](Cc2c[nH]c3ccccc23)C(N)=O)cc1 | –
– | – | – | – | CCCCCCCCCCOc1ccc(NC(=O)CCC(=O)N[C@@H](Cc2ccccc2)C(=O)N[C@@H](Cc2ccccc2)C(N)=O)cc1 | solubility [13]: Insoluble
Active | Active | Active | Active | CCCC(=O)Oc1ccc(NC(=O)CCC(=O)N[C@@H](Cc2ccccc2)C(=O)N[C@@H](Cc2ccc(O)cc2)C(N)=O)cc1 | –
– | – | – | – | CCCCOc1ccc(NC(=O)CCC(=O)N[C@@H](Cc2ccc(O)cc2)C(=O)N[C@@H](Cc2ccccc2)C(N)=O)cc1 | inhibition [9]: inactive; Ki [10]: 71 µM; inhibition [11]: inactive; Ki [12]: 170 µM
Active | Active | Active | Active | CCCC(=O)Oc1ccc(NC(=O)CCC(=O)N[C@@H](Cc2ccc(O)cc2)C(=O)N[C@@H](Cc2c[nH]c3ccccc23)C(N)=O)cc1 | –
Active | Active | Active | Active | CCCC(=O)Oc1ccc(NC(=O)CCC(=O)N[C@@H](Cc2ccc(O)cc2)C(=O)N[C@@H](Cc2ccccc2)C(N)=O)cc1 | –
– | – | – | – | CCCCCCCOc1ccc(NC(=O)CCC(=O)N[C@@H](Cc2ccccc2)C(=O)N[C@@H](Cc2ccccc2)C(N)=O)cc1 | Ki [5]: 0.37 µM; Ki [10]: 39 µM; solubility [13]: Insoluble
– | – | – | – | CCCCOc1ccc(NC(=O)CCC(=O)N[C@@H](Cc2ccccc2)C(=O)N[C@@H](Cc2ccccc2)C(N)=O)cc1 | Ki [5]: 2.6 µM; inhibition [9]: inactive; inhibition [11]: inactive; fold change (FC) (Chromobacterium viscosum [14]): 20; Ratio Ki [6]: 84; Ratio Ki [7]: 140; Ratio Ki [8]: 140
Active | Active | Active | Active | CCCC(=O)Oc1ccc(NC(=O)CCC(=O)N[C@@H](Cc2ccccc2)C(=O)N[C@@H](Cc2ccccc2)C(N)=O)cc1 | Km (Chromobacterium viscosum [2]): 180 µM; inhibition [15]: inactive; Ki [5]: 37 µM; inhibition [9]: inactive; inhibition [11]: inactive; fold change (FC) (Chromobacterium viscosum [14]): 20; Ratio Ki [6]: > 160; Ratio Ki [7]: > 160; Ratio Ki [8]: > 160
Active | Active | Active | Active | CCCC(=O)Oc1ccc(NC(=O)CCC(=O)N[C@@H](Cc2ccc(O)cc2)C(=O)N[C@@H](Cc2ccc(O)cc2)C(N)=O)cc1 | –
